From article PMC5495814, “The impact of the butterfly effect on human parainfluenza virus haemagglutinin-neuraminidase inhibitor design” (Scientific Reports, 2017)
“And” between values parts separate entries of the source, which are not always exact repeats. Equal entries are not always repeated. Where two headings read alike, the source gives them in different places.

What was measured:
[1] = target: T1, human neuraminidase 2 (hNeu2) (Homo sapiens, UniProt Q9Y3R4); assay: NI assay with recombinant human neuraminidase 2; format: biochemical; details: inhibitors tested 0.001 μM to 1000 μM, 0.5 mM MUN, pH 5.5
T1 construct: GST (own knowledge: pGEX-2T encodes an N-terminal GST with a thrombin site); made in house; host or cells: E. coli
T1 sequence (Q9Y3R4 whole entry): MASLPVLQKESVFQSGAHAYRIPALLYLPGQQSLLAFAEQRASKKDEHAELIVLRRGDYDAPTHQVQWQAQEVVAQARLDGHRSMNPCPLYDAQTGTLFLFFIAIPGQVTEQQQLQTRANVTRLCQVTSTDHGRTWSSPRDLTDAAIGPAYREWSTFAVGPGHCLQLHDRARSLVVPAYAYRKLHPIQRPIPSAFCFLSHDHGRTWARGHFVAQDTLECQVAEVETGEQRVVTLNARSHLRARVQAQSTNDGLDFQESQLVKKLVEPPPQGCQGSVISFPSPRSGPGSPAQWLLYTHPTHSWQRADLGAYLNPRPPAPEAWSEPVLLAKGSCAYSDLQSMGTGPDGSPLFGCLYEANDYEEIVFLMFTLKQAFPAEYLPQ
Procedure: Finally, all inhibitors were assessed for cytotoxicity to human A549 cells with no toxicity observed at a concentration of 300 µM (data not shown). In addition, we investigated[9] the capacity of the synthesized inhibitors 5–8 to inhibit human neuraminidase 2 (hNeu2) compared with the well-described neuraminidase inhibitor Neu5Ac2en (2)[28].
The NI assay with human Neuraminidase 2 (hNeu2) was performed as previously described, using 60 ng of purified hNeu2 enzyme in reaction buffer/hNeu2 (NaOAc 50 mM, pH 5.5), supplemented with 10 μg BSA and 0.5 mM MUN per reaction. All inhibitors were tested in duplicate in the concentration range from 0.001 μM to 1000 μM. After 10 min of incubation with agitation (1000 rpm) at 37 °C, the enzymatic reaction was stopped with glycine buffer (glycine 0.25 M, pH 10.4) and the product fluorescence was measured in relative fluorescence units (RFU) using a Victor 3 multilabel reader (PerkinElmer, Waltham, MA). Controls were conducted with MUN and purified hNeu2, the enzymatic reaction was stopped at t = 0 for the negative control and at t = 10 min for the positive control.
The obtained data were normalised by background (negative control RFU) subtraction and processed data were analyzed with GraphPadPrism 4 (GraphPad Software Inc., La Jolla, CA) to calculate IC50 values. The concentration of inhibitor that reduced the neuraminidase activity by 50% compared to those of a non-treated virus/protein suspension was considered as the NI IC50 value.

hPIV-3 = assay: Virus growth inhibition by in situ ELISA in A549 cells
[2] = target: hPIV-3 HN neuraminidase function (Human parainfluenza 3 virus, UniProt P08492); assay: biochemical; design: species or system human parainfluenza virus type 3 (hPIV-3, strain C-243); details: for IC50: NI IC50, purified hPIV-3, MUN substrate, pH 4.6, means of 3 independent experiments
hPIV-3 HN neuraminidase function, sequence (P08492 whole entry): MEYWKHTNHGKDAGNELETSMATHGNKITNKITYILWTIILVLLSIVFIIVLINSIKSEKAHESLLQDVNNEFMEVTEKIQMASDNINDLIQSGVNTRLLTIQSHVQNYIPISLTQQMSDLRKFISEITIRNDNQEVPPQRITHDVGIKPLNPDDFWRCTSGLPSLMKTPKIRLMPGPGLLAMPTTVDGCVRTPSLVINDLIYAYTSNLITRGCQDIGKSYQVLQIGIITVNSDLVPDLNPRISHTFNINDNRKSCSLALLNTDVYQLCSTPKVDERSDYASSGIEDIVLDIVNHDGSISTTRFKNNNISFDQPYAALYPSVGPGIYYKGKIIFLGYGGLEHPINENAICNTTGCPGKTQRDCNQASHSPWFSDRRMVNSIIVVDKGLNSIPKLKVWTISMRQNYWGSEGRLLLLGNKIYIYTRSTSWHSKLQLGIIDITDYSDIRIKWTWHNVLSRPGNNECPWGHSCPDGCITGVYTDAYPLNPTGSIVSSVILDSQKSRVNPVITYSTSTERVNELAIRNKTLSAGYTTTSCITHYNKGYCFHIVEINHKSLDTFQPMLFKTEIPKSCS

[3] = target: hPIV-3 HN haemagglutinin function (Human parainfluenza 3 virus, UniProt P08492); assay: cell-based; design: species or system human parainfluenza virus type 3 (hPIV-3); details: HI IC50, human red blood cells, 4 °C, 90 min
hPIV-3 HN haemagglutinin function, sequence (P08492 whole entry): as above
Procedure: The HN inhibitors were assessed in haemagglutination inhibition assays using human red blood cells (RBC) as previously described[10] with minor modifications. The lowest final concentration of hPIV-3 that leads to a complete agglutination of human-RBC at 4 °C is considered as 1 HAU. 4 haemagglutination units (HAU) of hPIV-3 (final 1 HAU per well) were pre-mixed with inhibitors of each tested concentration (4X dilution in PBS) on ice. Next, an equivalent volume of ice-cold 1% human-RBC in PBS was added to each well of the inhibitor/virus pre-mixture and the plate was then incubated for 90 min at 4 °C before determining the extent of haemagglutination inhibition.

soluble hPIV-3 HN = target: soluble hPIV-3 HN; design: method as in PMID 23740997; details: in complex with soluble hPIV-3 HN; cited from earlier work
[4] = Human respirovirus 3, A549, in Homo sapiens, read-out: Virus growth inhibition IC50, in situ ELISA, human cell line A549, 36–40 h
[5] = read-out: Virus growth inhibition IC50, in situ ELISA, human cell line A549, 36–40 h

Compound | Inhibition of hNeu2 [1] | IC50 (hPIV-3; [4]) [µM] | IC50 (hPIV-3; [5]) [µM] | IC50 [2] | IC50 [3] | increase in potency (NI) compared to Neu2en analogue 6 ([2]; NI IC50 of 8 versus 6) [fold] | Kd (soluble hPIV-3 HN) [µM]
CC(C)C(=O)N[C@H]1[C@H]([C@H](O)[C@H](O)CO)OC(C(=O)O)=C[C@@H]1n1cc(-c2ccccc2)nn1 [Inhibitor 5, reference compound] | No inhibition | 11.2 ± 0.9 | 11.2 |  |  |  | 
COCc1cn([C@H]2C=C(C(=O)O)O[C@@H]([C@H](O)[C@H](O)CO)[C@@H]2NC(=O)C(C)C)nn1 [Inhibitor 6, reference compound] | No inhibition | 82.4 ± 7.7 | 82.4 | 14.5 µM | 3.88 µM and 3.9 µM |  | 
CC(C)C(=O)N[C@H]1[C@H]([C@H](O)[C@H](O)CO)O[C@@](F)(C(=O)O)[C@@H](F)[C@@H]1n1cc(-c2ccccc2)nn1 [Inhibitor 7] | No inhibition | 40.1 ± 7 | 40.1 | 55.3 µM | 775 µM |  | 
COCc1cn([C@@H]2[C@@H](NC(=O)C(C)C)[C@H]([C@H](O)[C@H](O)CO)O[C@@](F)(C(=O)O)[C@H]2F)nn1 [Inhibitor 8] | No inhibition | 14.3 ± 0.3 | 14.3 | 6.7 µM and 6.75 µM | 57 µM | 2 | 
Neu5Acα2–3 Galβ1–4GlcNAcβ1–3 Galβ1–4GlcNAc [3′SiaDiLN] |  |  |  |  |  |  | 4300
